Legend:
[1] = tested on: IL-4 stimulated CD23 upregulation in human Ramos B cells (JAK-1/JAK-3, Stat-6); assay: Assay for Ramos B-Cell Line Stimulated with IL-4 (CD23 upregulation, FACS); type: cell-based; settings: Table III Example 3
Summary of the method: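 Log-phase Ramos B cells (5×10^4 per point, RPMI with 5% serum) pre-incubated with compound or DMSO 1 h at 37° C, then stimulated with IL-4 at 50 units/mL final for 20-24 h. CD23 upregulation measured by staining and flow cytometry.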

[2] = tested on: IFNγ induced ICAM-1 (CD54) up-regulation in A549 lung epithelial cells (JAK/Stat pathway); assay: A549 Epithelial Line Stimulated with IFNγ (ICAM-1 surface expression, flow cytometry); type: cell-based, human
Text: The activity of the compounds of the invention may additionally be characterized by assaying the effect of the 2,4-pyrimidinediamine compounds described herein on A549 lung epithelial cells and U937 cells. A549 lung epithelial cells and U937 cells up-regulate ICAM-1 (CD54) surface expression in response to a variety of different stimuli. Therefore, using ICAM-1 expression as readout, test compound effects on different signaling pathways can be assessed in the same cell type. Stimulation with IL-1β through the IL-1β receptor activates the TRAF6/NFκB pathway resulting in up-regulation of ICAM-1. IFNγ induces ICAM-1 up-regulation through activation of the JAK1/JAK2 pathway. The up-regulation of ICAM-1 can be quantified by flow cytometry across a compound dose curve and EC50 values are calculated. Exemplary assays of this type are described in greater detail in Examples 5 and 6.
A549 lung epithelial cells up-regulate ICAM-1 (CD54) surface expression in response to a variety of different stimuli. Therefore, using ICAM-1 expression as readout, compound effects on different signaling pathways can be assessed in the same cell type. IFNγ up-regulates ICAM-1 through activation of the JAK/Stat pathway. In this example, the up-regulation of ICAM-1 by IFNγ was assessed.
The A549 lung epithelial carcinoma cell line originated from the American Type Culture Collection. Routine culturing was with F12K media (Mediatech Inc., Lenexa, Kans., Cat. No. 10-025-CV) with 10% fetal bovine serum, 100 I.U. penicillin and […] streptomycin (complete F12k media). Cells were incubated in a humidified atmosphere of 5% CO2 at 37° C. Prior to use in the assay, A549 cells were washed with PBS and trypsinized (Mediatech Inc., Cat. No. 25-052-CI) to lift the cells. The trypsin cell suspension was neutralized with complete F12K media and centrifuged to pellet the cells. The cell pellet was resuspended in complete F12K media at a concentration of 2.0×10^5/mL. Cells were seeded at 20,000 per well, 100 μL total volume, in a flat bottom tissue culture plate and allowed to adhere overnight.
On day two, A549 cells were pre-incubated with a 2,4-pyrimidinediamine test compound or DMSO (control) (Sigma-Aldrich, St. Louis, Mo., Catalog No. D2650) for 1 hour. The cells were then stimulated with IFNγ (75 ng/mL) (Peprotech Inc., Rocky Hill, N.J., Cat. No. 300-02) and allowed to incubate for 24 hours. The final test compound dose range was 30 μM to 14 nM in 200 μL F12K media containing 5% FBS, 0.3% DMSO.
On day three, the cell media was removed and the cells were washed with 200 μL PBS (phosphate buffered saline). Each well was trypsinized to dissociate the cells, then neutralized by addition of 200 μL complete F12K media. Cells were pelleted and stained with an APC conjugated mouse anti-human ICAM-1 (CD54) (BD Pharmingen, San Diego, Calif., Catalog #559771) antibody for 20 minutes at 4° C. Cells were washed with ice cold FACS buffer (PBS+2% FBS) and surface ICAM-1 expression was analyzed by flow cytometry. Detection was performed using a BD LSR I System Flow Cytometer, purchased from BD Biosciences of San Jose, Calif. Events were gated for live scatter and the geometric mean was calculated (Becton-Dickinson CellQuest software version 3.3, Franklin Lakes, N.J.). Geometric means were plotted against the compound concentration to generate a dose response curve.

Structure (SMILES): NS(=O)(=O)c1ccc(Nc2ncc(Cl)c(Nc3ccc(CNS(=O)(=O)C4CC4)cc3)n2)cc1 [Compound I-115, N2-(4-aminosulfonyl)phenyl-5-chloro-N4-(4-cyclopropylsulfonylaminomethyl)phenyl-2,4-pyrimidinediamine]
- IC50 [1]: 23.3 nM
- IC50 ([2]; Table III Example 5): 2720 nM

Structure (SMILES): CCC(=O)N(Cc1cccc(Nc2nc(Nc3cccc(S(N)(=O)=O)c3)ncc2C)c1)S(=O)(=O)C1CC1 [Compound I-116, N2-(3-aminosulfonyl)phenyl-N4-[3-(N-cyclopropylsulfonyl-N-propionyl)aminomethyl]phenyl-5-methyl-2,4-pyrimidinediamine]
- IC50 [1]: 36.7 nM
- IC50 ([2]; Table III Example 5): 1830 nM

Structure (SMILES): C#CCNS(=O)(=O)c1cc(Nc2ncc(C)c(Nc3ccc(CNS(=O)(=O)C4CC4)cc3)n2)ccc1C [Compound I-188, N4-(4-cyclopropylsulfonylaminomethyl)phenyl-5-methyl-N2-(4-methyl-3-propargylaminosulfonyl)phenyl-2,4-pyrimidinediamine]
- IC50 [1]: 43.6 nM
- IC50 ([2]; Table III Example 5): 5080 nM

Structure (SMILES): Cc1cnc(Nc2cccc(S(N)(=O)=O)c2)nc1Nc1cccc(CNS(=O)(=O)C2CC2)c1 [Compound I-51, N2-(3-aminosulfonyl)phenyl-N4-(3-cyclopropylsulfonylaminomethyl)phenyl-5-methyl-2,4-pyrimidinediamine]
- IC50 [1]: 62.2 nM
- IC50 ([2]; Table III Example 5): 2800 nM

Structure (SMILES): COCCCNS(=O)(=O)c1cccc(Nc2ncc(C)c(Nc3ccc(CNS(=O)(=O)C4CC4)cc3)n2)c1 [Compound I-182, N4-(4-cyclopropylsulfonylaminomethyl)phenyl-N2-[3-(3-methoxypropyl)aminosulfonyl]phenyl-5-methyl-2,4-pyrimidinediamine]
- IC50 [1]: 25.7 nM
- IC50 ([2]; Table III Example 5): 2250 nM

Structure (SMILES): COCCCNS(=O)(=O)c1ccc(Nc2ncc(C)c(Nc3ccc(CNS(=O)(=O)C4CC4)cc3)n2)cc1 [Compound I-181, N4-(4-cyclopropylsulfonylaminomethyl)phenyl-N2-[4-(3-methoxypropyl)aminosulfonyl]phenyl-5-methyl-2,4-pyrimidinediamine]
- IC50 [1]: 73.1 nM
- IC50 ([2]; Table III Example 5): 2350 nM

Structure (SMILES): COCCNS(=O)(=O)c1cccc(Nc2ncc(C)c(Nc3ccc(CNS(=O)(=O)C4CC4)cc3)n2)c1 [Compound I-184, N4-(4-cyclopropylsulfonylaminomethyl)phenyl-N2-[3-(2-methoxyethyl)aminosulfonyl]phenyl-5-methyl-2,4-pyrimidinediamine]
- IC50 [1]: 14.1 nM
- IC50 ([2]; Table III Example 5): 1410 nM

Structure (SMILES): Cc1ccc(Nc2ncc(C)c(Nc3ccc4c(c3)CCN(S(=O)(=O)C3CC3)C4)n2)cc1S(N)(=O)=O [II-3, N2-(3-aminosulfonyl-4-methyl)phenyl-N4-[(N-cyclopropylsulfonyl)-1,2,3,4-tetrahydroisoquinolin-6-yl]-5-methyl-2,4-pyrimidinediamine]
- IC50 [1]: 19.4 nM
- IC50 ([2]; Table III Example 5): 12400 nM

Structure (SMILES): C#CCNS(=O)(=O)Cc1ccc(Nc2nc(Nc3ccc(C)c(S(N)(=O)=O)c3)ncc2F)cc1 [Compound I-5, N2-(3-Aminosulfonyl-4-methylphenyl)-5-fluoro-N4-[4-(prop-2-ynylaminosulfonylmethyl)phenyl]-2,4-pyrimidinediamine]
- IC50 ([1]; Homo sapiens, Ramos): 130 nM
- IC50 ([2]; Homo sapiens, A549, Table III Example 5): 56600 nM

Structure (SMILES): CCS(=O)(=O)N[C@@H](C)c1ccc(Nc2nc(Nc3cccc(S(N)(=O)=O)c3)ncc2F)cc1 [Compound I-27, N2-(3-aminosulfonyl)phenyl-N4-[4-(1S-ethylsulfonylamino)ethyl]phenyl-5-fluoro-2,4-pyrimidinediamine]
- IC50 [1]: 118 nM
- IC50 ([2]; Table III Example 5): 5840 nM

Structure (SMILES): CCNS(=O)(=O)c1cc(Nc2ncc(C)c(Nc3ccc(CNS(=O)(=O)C4CC4)cc3)n2)ccc1C [Compound I-186, N4-(4-cyclopropylsulfonylaminomethyl)phenyl-N2-(3-ethylaminosulfonyl-4-methyl)phenyl-5-methyl-2,4-pyrimidinediamine]
- IC50 [1]: 19.5 nM
- IC50 ([2]; Table III Example 5): 1760 nM

Structure (SMILES): Cc1ccc(Nc2ncc(C)c(Nc3ccc(CN(C)S(=O)(=O)C4CC4)cc3)n2)cc1S(N)(=O)=O [Compound I-126, N2-(3-aminosulfonyl-4-methyl)phenyl-N4-[4-(N-cyclopropylsulfonyl-N-methyl)aminomethyl]phenyl-5-methyl-2,4-pyrimidinediamine]
- IC50 [1]: 104 nM
- IC50 ([2]; Table III Example 5): 5560 nM

Structure (SMILES): Cc1ccc(Nc2ncc(Cl)c(Nc3ccc(CNS(=O)(=O)C4CC4)cc3)n2)cc1S(N)(=O)=O [Compound I-113, N2-(3-aminosulfonyl-4-methyl)phenyl-5-chloro-N4-(4-cyclopropylsulfonylaminomethyl)phenyl-2,4-pyrimidinediamine]
- IC50 [1]: 18.6 nM
- IC50 ([2]; Table III Example 5): 888 nM

Structure (SMILES): Cc1cnc(Nc2cccc(S(N)(=O)=O)c2)nc1Nc1ccc(CN(C)S(=O)(=O)C2CC2)cc1 [Compound I-121, N2-(3-aminosulfonyl)phenyl-N4-[4-(N-cyclopropylsulfonyl-N-methyl)aminomethyl]phenyl-5-methyl-2,4-pyrimidinediamine]
- IC50 [1]: 73.6 nM
- IC50 ([2]; Table III Example 5): 36500 nM

Structure (SMILES): Cc1cnc(Nc2cccc(S(N)(=O)=O)c2)nc1Nc1cccc(CN(C)S(=O)(=O)C2CC2)c1 [Compound I-120, N2-(3-aminosulfonyl)phenyl-N4-[3-(N-cyclopropylsulfonyl-N-methyl)aminomethyl]phenyl-5-methyl-2,4-pyrimidinediamine]
- IC50 [1]: 67.1 nM
- IC50 ([2]; Table III Example 5): 2540 nM

Structure (SMILES): Cc1ccc(Nc2ncc(C)c(Nc3ccc(CNS(=O)(=O)C4CC4)cc3)n2)cc1S(N)(=O)=O [Compound I-47, N2-(3-aminosulfonyl-4-methyl)phenyl-N4-(4-cyclopropylsulfonylaminomethyl)phenyl-5-methyl-2,4-pyrimidinediamine]
- IC50 [1]: 28 nM
- IC50 ([2]; Table III Example 5): 2890 nM

Structure (SMILES): Cc1cnc(Nc2cccc(S(=O)(=O)NCC3CC3)c2)nc1Nc1ccc(CNS(=O)(=O)C2CC2)cc1 [Compound I-180, N2-(3-cyclopropylmethylaminosulfonyl)phenyl-N4-(4-cyclopropylsulfonylaminomethyl)phenyl-5-methyl-2,4-pyrimidinediamine]
- IC50 [1]: 25.7 nM
- IC50 ([2]; Table III Example 5): 2220 nM

Structure (SMILES): CNS(=O)(=O)c1cc(Nc2ncc(C)c(Nc3ccc(CNS(=O)(=O)C4CC4)cc3)n2)ccc1C [Compound I-185, N4-(4-cyclopropylsulfonylaminomethyl)phenyl-5-methyl-N2-(4-methyl-3-methylaminosulfonyl)phenyl-2,4-pyrimidinediamine]
- IC50 [1]: 22.5 nM
- IC50 ([2]; Table III Example 5): 4100 nM

Structure (SMILES): Cc1ccc(Nc2ncc(C)c(Nc3ccc(CNS(=O)(=O)C(C)C)cc3)n2)cc1S(N)(=O)=O [Compound I-117, N2-(3-aminosulfonyl-4-methyl)phenyl-N4-(4-isopropylsulfonylaminomethyl)phenyl-5-methyl-2,4-pyrimidinediamine]
- IC50 [1]: 38.8 nM
- IC50 ([2]; Table III Example 5): 2170 nM

Structure (SMILES): NS(=O)(=O)c1ccc(Nc2ncc(F)c(Nc3ccc(CNS(=O)(=O)C4CCCC4)cc3)n2)cc1 [Compound I-68, N2-(4-aminosulfonyl)phenyl-N4-(4-cyclopentylsulfonylaminomethyl)phenyl-5-fluoro-2,4-pyrimidinediamine]
- IC50 [1]: 94 nM
- IC50 ([2]; Table III Example 5): 4950 nM

Structure (SMILES): NS(=O)(=O)c1cccc(Nc2ncc(F)c(Nc3ccc(CNS(=O)(=O)CC(F)(F)F)cc3)n2)c1 [Compound I-49, N2-(3-aminosulfonyl)phenyl-5-fluoro-N4-(4-trifluoroethylsulfonylaminomethyl)phenyl-2,4-pyrimidinediamine]
- IC50 [1]: 46.8 nM
- IC50 ([2]; Table III Example 5): 78900 nM

Structure (SMILES): C#CCNS(=O)(=O)c1cccc(Nc2ncc(C)c(Nc3ccc(CNS(=O)(=O)C4CC4)cc3)n2)c1 [Compound I-165, N4-(4-cyclopropylsulfonylaminomethyl)phenyl-5-methyl-N2-(3-propargylaminosulfonyl)phenyl-2,4-pyrimidinediamine]
- IC50 [1]: 34.8 nM
- IC50 ([2]; Table III Example 5): 8970 nM

— patent publication US9481654B2, “Compositions and methods for inhibition of the JAK pathway” (Rigel Pharmaceuticals, Inc., priority 2006, dated 2016)
